In US4435387A, “Poly-cation salts of bis (or tris) 4-O-polyhexose-thio-arylene sulfate derivatives” (American Cyanamid Company, priority 1982, dated 1984):
Like-named read-outs stand apart in the source and are kept apart here.

Tests used:
activated human C1 = target: T1, activated human C1 (Homo sapiens, UniProt P09871); assay: Test Code 026 (C1 inhibitor); type: biochemical; settings: in vitro; twofold serial dilution assay, higher well number indicates higher activity
T1 construct: fluid-phase C2 destruction with C4 present
T1 sequence (P09871 16-688): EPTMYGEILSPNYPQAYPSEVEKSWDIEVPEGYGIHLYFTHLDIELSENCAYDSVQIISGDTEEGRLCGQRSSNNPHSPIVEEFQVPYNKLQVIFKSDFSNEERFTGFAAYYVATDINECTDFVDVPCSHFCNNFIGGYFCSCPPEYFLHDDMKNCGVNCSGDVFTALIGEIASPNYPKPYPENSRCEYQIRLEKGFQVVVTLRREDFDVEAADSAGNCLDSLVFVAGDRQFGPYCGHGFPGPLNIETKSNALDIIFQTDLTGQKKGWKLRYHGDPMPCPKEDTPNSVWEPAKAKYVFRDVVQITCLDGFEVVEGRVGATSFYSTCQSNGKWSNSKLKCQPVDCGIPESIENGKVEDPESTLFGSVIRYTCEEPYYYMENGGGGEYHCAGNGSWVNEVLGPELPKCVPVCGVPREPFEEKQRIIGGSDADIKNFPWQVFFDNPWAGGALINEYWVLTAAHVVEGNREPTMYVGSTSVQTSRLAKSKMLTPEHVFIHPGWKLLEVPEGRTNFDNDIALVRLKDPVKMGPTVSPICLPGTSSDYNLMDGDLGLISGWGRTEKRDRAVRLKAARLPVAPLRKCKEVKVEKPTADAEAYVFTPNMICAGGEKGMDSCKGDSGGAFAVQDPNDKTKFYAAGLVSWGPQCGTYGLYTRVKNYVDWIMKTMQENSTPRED
T1 sequence (P00736 18-705 partner): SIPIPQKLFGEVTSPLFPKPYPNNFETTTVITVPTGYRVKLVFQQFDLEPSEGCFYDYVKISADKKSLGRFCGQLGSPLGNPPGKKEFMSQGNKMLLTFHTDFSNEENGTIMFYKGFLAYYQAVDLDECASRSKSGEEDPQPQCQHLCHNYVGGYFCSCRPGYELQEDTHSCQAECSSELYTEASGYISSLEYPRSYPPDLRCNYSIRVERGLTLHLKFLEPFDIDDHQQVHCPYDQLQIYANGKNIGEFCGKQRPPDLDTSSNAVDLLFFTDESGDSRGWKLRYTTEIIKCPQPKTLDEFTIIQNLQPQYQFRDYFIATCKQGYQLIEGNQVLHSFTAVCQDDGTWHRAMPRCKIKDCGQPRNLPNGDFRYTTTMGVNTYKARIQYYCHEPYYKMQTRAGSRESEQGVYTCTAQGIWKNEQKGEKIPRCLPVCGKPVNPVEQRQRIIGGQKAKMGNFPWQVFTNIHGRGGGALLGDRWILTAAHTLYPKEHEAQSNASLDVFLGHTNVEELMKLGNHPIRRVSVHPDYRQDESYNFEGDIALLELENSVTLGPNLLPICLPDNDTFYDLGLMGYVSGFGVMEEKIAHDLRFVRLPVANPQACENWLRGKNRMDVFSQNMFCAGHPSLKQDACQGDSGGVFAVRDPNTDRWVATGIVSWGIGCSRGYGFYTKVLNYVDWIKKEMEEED
T1 sequence (P02745 23-245 partner): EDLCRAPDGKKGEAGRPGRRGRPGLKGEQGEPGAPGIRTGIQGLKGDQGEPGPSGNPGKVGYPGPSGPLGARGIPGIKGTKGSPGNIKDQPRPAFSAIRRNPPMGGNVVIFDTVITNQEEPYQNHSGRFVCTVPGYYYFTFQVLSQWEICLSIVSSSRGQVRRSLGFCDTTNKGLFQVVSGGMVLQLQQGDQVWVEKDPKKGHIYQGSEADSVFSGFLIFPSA
T1 sequence (P02746 28-253 partner): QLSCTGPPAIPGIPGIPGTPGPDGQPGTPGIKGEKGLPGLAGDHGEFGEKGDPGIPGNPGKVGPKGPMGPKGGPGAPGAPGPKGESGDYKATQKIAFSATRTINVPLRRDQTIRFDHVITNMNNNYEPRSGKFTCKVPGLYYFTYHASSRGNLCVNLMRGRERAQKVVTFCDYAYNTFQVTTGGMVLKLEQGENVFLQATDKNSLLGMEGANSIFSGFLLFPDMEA
T1 sequence (P02747 29-245 partner): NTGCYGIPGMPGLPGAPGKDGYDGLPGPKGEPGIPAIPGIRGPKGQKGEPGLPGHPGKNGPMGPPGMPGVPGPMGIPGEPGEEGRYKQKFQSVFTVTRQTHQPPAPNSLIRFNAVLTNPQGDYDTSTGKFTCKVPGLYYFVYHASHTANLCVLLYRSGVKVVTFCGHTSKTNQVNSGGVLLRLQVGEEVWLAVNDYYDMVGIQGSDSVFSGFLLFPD
Description: (§1) Percent inhibition is calculated by comparison with simultaneous controls.
(§2) **Activity in wells, a serial dilution assay; higher well number indicate
(§3) higher activity. The serial dilutions are twofold.

[1] = tested on: late components of human complement (C3-C9); assay: Test Code 035 (C3-C9 inhibitor), lysis of EAC 142; type: biochemical; settings: in vitro; twofold serial dilution assay, higher well number indicates higher activity
Description: as §1, §2, §3

[2] = tested on: complement activity of guinea pig sera; assay: Guinea Pig Intraperitoneal Test (GPIP); type: in vivo; settings: Cavia porcellus, ip, 200 mg/kg i.p.
Description: as §1

[3] = tested on: hereditary angioneurotic edema; settings: literature reports; cited from earlier work
[4] = tested on: human serum total hemolytic complement activity; settings: in vitro and in vivo, judged by reduction in total hemolytic complement activity; Pathol. Biol. 25 (1977); cited from earlier work

| Molecule | C-1 026 Wells (activated human C1) [Wells] | C-Late 035 Wells [1] [Wells] | other results |
| --- | --- | --- | --- |
| O=C(Nc1ccc(S[C@@H]2O[C@H](COS(=O)(=O)O)[C@@H](O[C@H]3O[C@H](COS(=O)(=O)O)[C@@H](OS(=O)(=O)O)[C@H](OS(=O)(=O)O)[C@H]3OS(=O)(=O)O)[C@H](OS(=O)(=O)O)[C@H]2OS(=O)(=O)O)cc1)c1cc(C(=O)Nc2ccc(S[C@@H]3O[C@H](COS(=O)(=O)O)[C@@H](O[C@H]4O[C@H](COS(=O)(=O)O)[C@@H](OS(=O)(=O)O)[C@H](OS(=O)(=O)O)[C@H]4OS(=O)(=O)O)[C@H](OS(=O)(=O)O)[C@H]3OS(=O)(=O)O)cc2)cc(C(=O)Nc2ccc(S[C@@H]3O[C@H](COS(=O)(=O)O)[C@@H](O[C@H]4O[C@H](COS(=O)(=O)O)[C@@H](OS(=O)(=O)O)[C@H](OS(=O)(=O)O)[C@H]4OS(=O)(=O)O)[C@H](OS(=O)(=O)O)[C@H]3OS(=O)(=O)O)cc2)c1.[Na].[Na].[Na].[Na].[Na].[Na].[Na].[Na].[Na].[Na].[Na].[Na].[Na].[Na].[Na].[Na].[Na].[Na].[Na].[Na].[Na] [Heneicosasodium N,N',N"-tris[4-[[2,3,6-tri-O-sulfo-4-O-(2,3,4,6-tetra-O-sulfo-α-D-glucopyranosyl)-β-D-glucopyranosyl]thio]phenyl]-1,3,5-benzenetricarboxamide] | 8 | 2 |  |
| O=S(=O)(O)OC[C@H]1O[C@@H](Sc2ccc(NS(=O)(=O)c3cc(S(=O)(=O)Nc4ccc(S[C@@H]5O[C@H](COS(=O)(=O)O)[C@@H](O[C@H]6O[C@H](COS(=O)(=O)O)[C@@H](OS(=O)(=O)O)[C@H](OS(=O)(=O)O)[C@H]6OS(=O)(=O)O)[C@H](OS(=O)(=O)O)[C@H]5OS(=O)(=O)O)cc4)cc(S(=O)(=O)Nc4ccc(S[C@@H]5O[C@H](COS(=O)(=O)O)[C@@H](O[C@H]6O[C@H](COS(=O)(=O)O)[C@@H](OS(=O)(=O)O)[C@H](OS(=O)(=O)O)[C@H]6OS(=O)(=O)O)[C@H](OS(=O)(=O)O)[C@H]5OS(=O)(=O)O)cc4)c3)cc2)[C@H](OS(=O)(=O)O)[C@@H](OS(=O)(=O)O)[C@@H]1O[C@H]1O[C@H](COS(=O)(=O)O)[C@@H](OS(=O)(=O)O)[C@H](OS(=O)(=O)O)[C@H]1OS(=O)(=O)O.[Na].[Na].[Na].[Na].[Na].[Na].[Na].[Na].[Na].[Na].[Na].[Na].[Na].[Na].[Na].[Na].[Na].[Na].[Na].[Na].[Na] [Heneicosasodium N,N',N"-tris[4-[[2,3,6-tri-O-sulfo-4-O-(2,3,4,6-tetra-O-sulfo-α-D-glucopyranosyl)-β-D-glucopyranosyl]thio]phenyl]-1,3,5-benzenetrisulfonamide] | 9 | 3 |  |
| O=S(=O)(O)OC[C@H]1O[C@@H](Sc2ccc(NS(=O)(=O)c3cc(S(=O)(=O)Nc4ccc(S[C@@H]5O[C@H](COS(=O)(=O)O)[C@@H](O[C@@H]6O[C@H](COS(=O)(=O)O)[C@@H](OS(=O)(=O)O)[C@H](OS(=O)(=O)O)[C@H]6OS(=O)(=O)O)[C@H](OS(=O)(=O)O)[C@H]5OS(=O)(=O)O)cc4)cc(S(=O)(=O)Nc4ccc(S[C@@H]5O[C@H](COS(=O)(=O)O)[C@@H](O[C@@H]6O[C@H](COS(=O)(=O)O)[C@@H](OS(=O)(=O)O)[C@H](OS(=O)(=O)O)[C@H]6OS(=O)(=O)O)[C@H](OS(=O)(=O)O)[C@H]5OS(=O)(=O)O)cc4)c3)cc2)[C@H](OS(=O)(=O)O)[C@@H](OS(=O)(=O)O)[C@@H]1O[C@@H]1O[C@H](COS(=O)(=O)O)[C@@H](OS(=O)(=O)O)[C@H](OS(=O)(=O)O)[C@H]1OS(=O)(=O)O.[Na].[Na].[Na].[Na].[Na].[Na].[Na].[Na].[Na].[Na].[Na].[Na].[Na].[Na].[Na].[Na].[Na].[Na].[Na].[Na].[Na] [Heneicosasodium N,N',N"-tris[4-[[2,3,6-tri-O-sulfo-4-O-(2,3,4,6-tetra-O-sulfo-β-D-glucopyranosyl)-β-D-glucopyranosyl]thio]phenyl]-1,3,5-benzenetrisulfonamide] | 12 | 3 |  |
| O=C(Nc1ccc(S[C@@H]2O[C@H](COS(=O)(=O)O)[C@@H](O[C@H]3O[C@H](COS(=O)(=O)O)[C@@H](OS(=O)(=O)O)[C@H](OS(=O)(=O)O)[C@H]3OS(=O)(=O)O)[C@H](OS(=O)(=O)O)[C@H]2OS(=O)(=O)O)cc1)c1ccc(C(=O)Nc2ccc(S[C@@H]3O[C@H](COS(=O)(=O)O)[C@@H](O[C@H]4O[C@H](COS(=O)(=O)O)[C@@H](OS(=O)(=O)O)[C@H](OS(=O)(=O)O)[C@H]4OS(=O)(=O)O)[C@H](OS(=O)(=O)O)[C@H]3OS(=O)(=O)O)cc2)cc1.[Na].[Na].[Na].[Na].[Na].[Na].[Na].[Na].[Na].[Na].[Na].[Na].[Na].[Na] [Tetradecasodium N,N'-bis[4-[[2,3,6-tri-O-sulfo-4-O-(2,3,4,6-tetra-O-sulfo-α-D-glucopyranosyl)-β-D-glucopyranosyl]thio]phenyl]-1,4-benzenedicarboxamide] | 9 | 2 | inhibition at 200 mg/kg ([2]; serum complement 2 hours after injection, read-out: In vivo Activity (Guinea Pig % Inhibition) Intraperitoneal, 2 hours): 87%; inhibition at 200 mg/kg ([2]; serum complement 6 hours after injection, read-out: In vivo Activity (Guinea Pig % Inhibition) Intraperitoneal, 6 hours): 90%; inhibition at 200 mg/kg ([2]; serum complement 24 hours after injection, read-out: In vivo Activity (Guinea Pig % Inhibition) Intraperitoneal, 24 hours): 62% |
| NCCCCCC(=O)O [epsilon-aminocaproic acid] |  |  | treatment of hereditary angioneurotic edema [3]: used with success |
| NC[C@H]1CC[C@H](C(=O)O)CC1 [tranexamic acid] |  |  | treatment of hereditary angioneurotic edema [3]: used with success |
| pentosan-polysulfoester |  |  | anticomplementary activity on human serum [4]: anticomplementary activity |
